Experimental data: patent US9888679B2, “Protection of progenitor cells and regulation of their differentiation” (Proteobioactives Pty Ltd, priority 2007, dated 2018)

Assays:
Type in all cases: cell-based
human progenitor cells = test: DNA synthesis (3H-Thymidine incorporation) in micromass cultures; conditions: FIG. 5
Description: FIG. 5. A bar graph of the concentration dependent effects of Pentosan Polysulfate (PPS) on DNA synthesis by human progenitor cells, as determined by the incorporation of ^3H-Thymidine into macromolecular DNA, after 4 day micromass cultures. *=p<0.05; **=p<0.005 relative to controls.
Ten μl of progenitor cells (7×10^6 cells/ml) were seeded into each well of a 24-well culture plate. After incubation at 37° C. in moist 5% CO2/95% air for 2-3 hours, 900 μl of DMEM-High medium (+10% FBS) and indicated concentrations PPS dissolved in DMEM-High medium were added slowly to the wells. The final PPS concentration were 0, 0.1, 0.5, 1.0, 2.5, 5.0, 10.0, 20.0 μg/ml, respectively. Every PPS concentration was established in triplicate. The cultures were allowed to proceed for 3 days. On day 4, to each well of the 24-well plate was added 640 μl of DMEM-High (+10% FBS), 80 μl of 10×PPS solution and 80 μl of 10 μCi/ml ^3H-Thymidine solution to produce a final ^3H-Thymidine concentration of […] and final PPS concentrations as indicated. The cultures were then incubated in 37° C., 5% CO2 for a further 22 hours, the medium was removed and 200 μl of 1 mg/ml Collagenase solution [Collagenase buffer: 66.7 mM NaCl, 6.7 mM KCl, 4.8 mM CaCl2.2H2O, 10 mM HEPES (pH7.4)] was added to each well. […] The radioactivity of ^3H incorporated into the DNA of proliferating cells was measured by scintillation counting.

[1] = test system: Primary human progenitor cells; test: Progenitor cell proliferation, WST-1 assay; conditions: FIG. 4
Description: FIG. 4. The Effects of Pentosan Polysulfate (PPS) on Human Progenitor cell Proliferation. Primary human progenitor cells were cultured in 24 well plates in growth media supplemented with PPS at the indicated concentrations. At various time intervals (day 1, 3, 6), the growth media was removed and replaced with phenol red free media containing the tetrazolium salt WST-1 for 2 hours at 37° C./5% CO2. WST-1 is cleaved by mitochondrial dehydrogenase in viable cells to produce a formazan dye that can be detected using an ELISA plate reader at a wavelength of 450 nm. Absorbance at 450 nm for each time point is shown for all concentrations of PPS.
FIG. 20. […] At various time intervals (day 3 & 5), the growth media was removed and replaced with phenol red free media containing the tetrazolium salt WST-1 for 2 hours at 37° C./5% CO2. Absorbance at 450 nm for each time point is shown for all concentrations of PPS and HA.
Primary human progenitor cells were cultured in 24 well plates in growth media supplemented with PPS at the indicated concentrations. At various time intervals (day 1, 3, 6), the growth media was removed and replaced with phenol red free media containing the tetrazolium salt WST-1 for 2 hours at 37° C./5% CO2. WST-1 is cleaved by mitochondrial dehydrogenase in viable cells to produce a formazan dye that can be detected using an ELISA plate reader at a wavelength of 450 nm. Absorbance at 450 nm for each time point is shown for all concentrations of PPS.

human progenitor cell = test: Viability after cryopreservation and thawing, MTT assay; conditions: FIG. 3
Description: FIG. 3. Effects of different concentrations of Pentosan Polysulfate (PPS) on progenitor cell viability following cryopreservation in liquid nitrogen and rapidly thawing as described in FIG. 1. Cell viability was determined using the mitochondrial dehydrogenase MTT assay. Data shown=Means±SD *=p<0.05 relative to control values
Murine Progenitor cells (cell lines C3H10T1/2 or ATDC5) purchased from RIKEN Cell Bank (Tsukuba, Japan) or human immunoselected Stro-1+ progenitor cells (Mesoblast Ltd, Melbourne, Australia) were seeded at a various cell densities over the range of 1.68×10^5-1.0×10^6 cells into 2 mL screw-capped centrifuge tubes containing in DMEM+10% FBS. In separate tubes a stock solution containing 2× the required concentrations of PPS dissolved in DMEM+20% FBS and 15% DMSO were prepared. These stock solutions were added to the cell cultures such that the final concentration of PPS was half that of the stock concentration and of FBS was 10% and DMSO was […]. Over several independent experiments the final concentrations of PPS in the final solutions ranged from 0.0-100 ug/ml (see figures for details). All concentrations of PPS used were examined in triplicated. Cells and the cryopreservation solutions containing the PPS were mixed gently for 5 mins and stored in liquid nitrogen. […] 90 ul×3 from each tube were transferred to a 96-well plate and the absorbance at 540 nm determined. […]

pentosan polysulfate [PPS]
cell division (3H-Thymidine incorporation into DNA) (human progenitor cells; 1-5 micrograms/mL): Marked stimulation of cell division
proliferation (3H-Thymidine incorporation into DNA) (human progenitor cells; all PPS concentrations (0.1-20 μg/ml)): increased proliferation
cell division (WST-1 cleavage assay) ([1]; 1-5 micrograms/mL, monolayer): Marked stimulation of cell division
proliferation (WST-1, absorbance at 450 nm) ([1]; day 6, PPS in excess of 1 μg/ml, p<0.01, ANOVA): statistically significant increase in proliferation
cell viability after cryopreservation and thawing (MTT) (human progenitor cell; 168,000 cells, particularly at 1 and 2.5 μg/ml PPS): improved the viability of the cells
cell viability after cryopreservation and thawing (MTT) (human progenitor cell; 350,000 cells): not adversely affected
